Experimental findings from patent US10577322B2, “5-methoxytryptophan and its derivatives and uses thereof” (National Health Research Institutes, priority 2015, dated 2020) are described below.

The subject of one data set is COX-2. Kind of data set: PMA-induced COX-2 expression in A549 cells (immunoblot). To be noted: for PMA-induced COX-2 protein expression: 30 min pretreatment, PMA 8 h. The data set is classed as cell-based. The method, then:
Cellular protein were resolved by 5% to 20% SDS-PAGE and transferred to nitrocellulose membranes and blotted with specific antibodies as previously described (Lee, G. L., et al.).
After pretreating A549 cells with different concentrations of 5-MTP, 5-MTPE and NACT-5-MTP for 30 min, cells were stimulated with PMA for 8 h. Cell lysates were immunoblotted with antibodies for COX-2 or β-actin.

A further data set has as its system COX-2 promoter. Kind of data set: COX-2 promoter-luciferase assay in RAW264.7 cells. The class given is cell-based, mouse. Conditions: for LPS-induced COX-2 promoter activity (luciferase): LPS 8 h. The procedure:
(§1) RAW264.7 macrophages were cotransfected with COX-2 promoter-luciferase, IL-6 promoter-luciferase constructs as previously described (Lee, G. L., et al.) or p5xNF-κB-luciferase (Stratagene) and pcDNA3.1-β-galactosidase plasmids using FuGENE 6 (Roche). After overnight transfection, the cells were incubated with or without LPS in the presence or absence of 5-MTP for 8 h. After treatment, cells were lysed, and luciferase activity was measured using an assay kit (Promega). β-galactosidase activity was used to normalize the data.
After pretreating mouse macrophage RAW264.7 cells with different concentrations of 5-MTP for 30 min, cells were stimulated with LPS for 8 h. Cell lysates were immunoblotted with antibodies for COX-2 or β-actin. In addition, RAW264.7 cells were transfected with COX-2 promoter-luciferase plasmid. After 24 h transfection, the cells were incubated with LPS for 8 h. Luciferase activity was measured. The experiments were repeated 3 times with similar results. The results shown in FIGS. 3A-3B confirmed that 5-MTP blocked LPS-induced COX-2 protein expression and promoter activity in a concentration-dependent manner in RAW264.7 cells.
Herein, after pretreating RAW264.7 cells with different concentrations of 5-MTP, 5-MTPE, COX-2 inhibitors (NSC398 or SC560) and NF-κB inhibitor JSH-23 for 30 min, cells were stimulated with LPS. In addition, RAW264.7 cells were also transfected with COX-2 promoter-luciferase plasmid. After 24 h transfection, the cells were incubated with LPS for 8 h. Luciferase activity as measured.

In the next data set the test system is LPS-induced endotoxemia. The data set is classed as in vivo. The procedure:
C57BL/6 mice (6-8 wks old) were treated intraperitoneally with saline or with different concentrations of 5-MTP (23.4 or 100 mg/kg) for 30 min before intraperitoneal administration of LPS (60 mg/kg). Animals were monitored for survival and other clinical signs including ruffled fur, lethargy, diarrhea, and body weight loss. Some animals were sacrificed at different times after LPS injection. Blood samples, peritoneal exudates, lungs, and spleens were collected. All mouse experiments were approved by the institutional Animal Care and Use Committee, National Health Research Institutes.
Since suppression of 5-MTP by endotoxemia could contribute to uncontrolled macrophage overproduction of proinflammatory cytokines and mediators, we determined whether exogenous 5-MTP administration rescues mice from LPS-induced systemic inflammation, organ damage and mortality. Mice were injected with saline, 5-MTP (23.4 mg/kg), 5-MTPE (25 mg/kg) or vehicle for 30 min, followed by LPS (60 mg/kg) (saline, n=25; 5-MTP, n=7; 5-MTPE, n=7; LPS, n=30; LPS+5-MTP, n=25; LPS+5-MTPE, n=25). Survival was monitored during the next 72 h. *P<0.001 compared to LPS treatment.

A further data set concerns NF-κB. Kind of data set: NF-κB promoter-luciferase assay in RAW264.7 cells. The class given is cell-based, mouse. To be noted: LPS 8 h. The procedure: as §1
After pretreating RAW264.7 cells with different concentrations of 5-MTP for 30 min, cells were stimulated with LPS for 8 h. NF-κB promoter activity as measured by NF-κB promoter-luciferase assay.

A further data set relates to iNOS. Kind of data set: iNOS immunohistochemistry in lung tissues of LPS-treated mice. To be noted: LPS 60 mg/kg; 12 h, 16 h and 24 h. The class given is in vivo. The method, then: Prior to immunohistochemical detection of COX-2, iNOS, Ly6g, or cleaved caspase-3 in lung sections, sections were deparaffinized with xylene, progressively rehydrated through graded alcohols. Antigen sites were retrieved by heating the sections on slides in pH 8 EDTA antigen. retrieval (Trilogy; Cell Marque Corporation) in electric pressure cooker for 15 min. […] All antibodies described hereafter were diluted in blocking buffer. Sections were incubated at room temperature for 2 h with primary antibody and then washed in PBST. The sections were incubated with primary antibody amplifier quanta (Thermo) for 10 minutes. After rinsing with PBST, the sections were incubated with HRP Polymer Quanto (Thermo) for 10 minutes and washed three times with PBST. COX-2, iNOS, Ly6g and cleaved caspase-3 were visualized by the addition of DAB Quanto Chromogen: Substrate for 3 minutes. Tissues were also counterstained with hematoxylin.
Moreover, paraffin-embedded sections were prepared from lungs of mice injected with 60 mg/kg LPS with or without saline or 5-MTP at 12 h, 16 h and 24 h. COX-2 and inducible nitric oxide synthase (iNOS) protein levels in lung tissues were determined by immunohistochemistry by staining with anti-COX-2 and anti-iNOS antibodies, respectively. The results are shown in FIGS. 6A-6B, in which scale bars represent 100 μm. […]

Another data set concerns TNF-α. In words: LPS-induced TNF-α production in RAW264.7 cells. To be noted: data not shown. The data set is classed as cell-based, mouse.
In the next data set the test system is RAW264.7 cells. Kind of data set: Cell viability by MTT assay. Conditions: 24 h. The class given is cell-based, mouse. The procedure:
Furthermore, RAW264.7 cells were treated with different concentrations of 5-MTP or 5-MTPE for 24 h. Cell viability was determined by MTT assay. In another experiment, after pretreating RAW264.7 cells with different concentrations of 5-MTP or 5-MTPE for 30 min, cells were stimulated with LPS for 24 h. IL-6 level in culture supernatants was measured by ELISA.

[1] abbreviates: 5-MTP 23.4 mg/kg 30 min before LPS 60 mg/kg.

For the molecule `COc1ccc2[nH]cc(C[C@H](N)C(=O)O)c2c1` [5-MTP, 5-methoxytryptophan], in the data set with COX-2, the “PMA-induced COX-2 protein expression” value is “suppress”. For the same molecule, the “LPS-induced COX-2 promoter activity (luciferase)” value in the data set on COX-2 promoter was “dose-dependently blocked”. Besides, in the data set on LPS-induced endotoxemia (setting [1]), the “endotoxemic mice died at day 3” value amounted to 20% and the “mice died at day 1” value is “none”. Further, in the data set with NF-κB, the “NF-κB promoter activity (transactivation)” value is “suppressed NF-κB transactivation in a concentration-dependent manner”. In the data set on iNOS, the “iNOS expression in lung tissues” value is listed as “suppresses”. In addition, the TNF-α production entry in the data set on TNF-α was “inhibited”.

`COC(=O)C(N)Cc1c[nH]c2ccc(OC)cc12` (stereo not shown) [5-MTPE, ester-5-MTP]: the “cell viability (MTT)” value in the data set on RAW264.7 cells was “not cell viability”. The “PMA-induced COX-2 protein expression” value with COX-2 is “dose-dependently blocked”. Besides, in the data set on COX-2 (PMA), the “COX-2 suppressive activity compared with 5-MTP” value is reported as “potent than that of 5-MTP”. The “COX-2 suppressive activity compared with JSH-23” value with COX-2 promoter (LPS) was “potent than that of NF-κB inhibitor JSH-23”. The “LPS-induced COX-2 promoter activity (luciferase)” value in the data set on COX-2 promoter was “dose-dependently blocked”. Further, in the data set on LPS-induced endotoxemia (5-MTPE 25 mg/kg 30 min before LPS 60 mg/kg, 72 h), the “protective capacity in LPS-induced lethal endotoxemia” value worked out at 100%.
